Data published in ChEMBL document CHEMBL4507315 (2021).

Experiments:
[1] = biological target: SRSF protein kinase 1 (Homo sapiens) (UniProt Q96SB4); details: Compound concentration 100.0 nM
[2] = biological target: Non-receptor tyrosine-protein kinase TNK1 (Homo sapiens) (UniProt Q13470); details: Compound concentration 100.0 nM
[3] = biological target: Calcium/calmodulin-dependent protein kinase type 1 (Homo sapiens) (UniProt Q14012); details: Compound concentration 100.0 nM
[4] = biological target: 5-hydroxytryptamine receptor 7 (Homo sapiens) (UniProt P34969); details: Compound concentration 10.0 uM
[5] = biological target: Cyclin-dependent kinase 13 (Homo sapiens) (UniProt Q14004); details: Compound concentration 100.0 nM
[6] = biological target: Phosphatidylinositol 3-kinase C2 domain-containing subunit gamma (Homo sapiens) (UniProt O75747); details: Compound concentration 100.0 nM
[7] = biological target: Serine/threonine-protein kinase DCLK1 (Homo sapiens) (UniProt O15075); details: Compound concentration 100.0 nM
[8] = biological target: Peripheral plasma membrane protein CASK (Homo sapiens) (UniProt O14936); details: Compound concentration 100.0 nM
[9] = biological target: Serine/threonine-protein kinase MRCK beta (Homo sapiens) (UniProt Q9Y5S2); details: Compound concentration 100.0 nM
[10] = biological target: Ribosomal protein S6 kinase alpha-2 (Homo sapiens) (UniProt Q15349); details: Compound concentration 100.0 nM
[11] = biological target: Receptor-type tyrosine-protein kinase FLT3 (Homo sapiens) (UniProt P36888); details: Compound concentration 100.0 nM
[12] = biological target: Myosin-IIIb (Homo sapiens) (UniProt Q8WXR4); details: Compound concentration 100.0 nM
[13] = biological target: Ribosomal protein S6 kinase alpha-6 (Homo sapiens) (UniProt Q9UK32); details: Compound concentration 100.0 nM
[14] = biological target: Serine/threonine-protein kinase 32B (Homo sapiens) (UniProt Q9NY57); details: Compound concentration 100.0 nM
[15] = tested on: Hepatocyte growth factor receptor (Homo sapiens), P08581 [M1250T]; details: Compound concentration 100.0 nM
[16] = biological target: Serine/threonine-protein kinase LATS2 (Homo sapiens) (UniProt Q9NRM7); details: Compound concentration 100.0 nM
[17] = tested on: Phosphatidylinositol 4,5-bisphosphate 3-kinase catalytic subunit alpha isoform (Homo sapiens), P42336 [E545A]; details: Compound concentration 100.0 nM
[18] = biological target: Serine/threonine-protein kinase tousled-like 1 (Homo sapiens) (UniProt Q9UKI8); details: Compound concentration 100.0 nM
[19] = biological target: Dual specificity protein kinase CLK2 (Homo sapiens) (UniProt P49760); details: Compound concentration 100.0 nM
[20] = biological target: Beta-1 adrenergic receptor (Homo sapiens) (UniProt P08588); details: Compound concentration 10.0 uM
[21] = biological target: Homeodomain-interacting protein kinase 1 (Homo sapiens) (UniProt Q86Z02); details: Compound concentration 100.0 nM
[22] = biological target: Dual specificity mitogen-activated protein kinase kinase 5 (Homo sapiens) (UniProt Q13163); details: Compound concentration 100.0 nM
[23] = biological target: Mitogen-activated protein kinase 3 (Homo sapiens) (UniProt P27361); details: Compound concentration 100.0 nM
[24] = biological target: Protein kinase C theta type (Homo sapiens) (UniProt Q04759); details: Compound concentration 100.0 nM
[25] = biological target: Serine/threonine-protein kinase D1 (Homo sapiens) (UniProt Q15139); details: Compound concentration 100.0 nM
[26] = biological target: Tyrosine-protein kinase ABL1 (Homo sapiens) (UniProt P00519); details: Compound concentration 100.0 nM
[27] = tested on: Phosphatidylinositol 4,5-bisphosphate 3-kinase catalytic subunit alpha isoform (Homo sapiens), P42336 [E545K]; details: Compound concentration 100.0 nM
[28] = biological target: Misshapen-like kinase 1 (Homo sapiens) (UniProt Q8N4C8); details: Compound concentration 100.0 nM
[29] = biological target: Mitogen-activated protein kinase kinase kinase kinase 1 (Homo sapiens) (UniProt Q92918); details: Compound concentration 100.0 nM
[30] = tested on: Epidermal growth factor receptor (Homo sapiens), P00533 [UNDEFINED MUTATION]; details: Compound concentration 100.0 nM
[31] = tested on: Epidermal growth factor receptor (Homo sapiens), P00533 [UNDEFINED MUTATION]; details: Compound concentration 100.0 nM; remark: listed apart in the source
[32] = biological target: SRSF protein kinase 2 (Homo sapiens) (UniProt P78362); details: Compound concentration 100.0 nM
[33] = biological target: Calcium/calmodulin-dependent protein kinase type II subunit alpha (Homo sapiens) (UniProt Q9UQM7); details: Compound concentration 100.0 nM
[34] = biological target: TGF-beta receptor type-1 (Homo sapiens) (UniProt P36897); details: Compound concentration 100.0 nM
[35] = biological target: Serine/threonine-protein kinase 38 (Homo sapiens) (UniProt Q15208); details: Compound concentration 100.0 nM
[36] = biological target: Serine/threonine-protein kinase DCLK2 (Homo sapiens) (UniProt Q8N568); details: Compound concentration 100.0 nM
[37] = biological target: Myosin-IIIa (Homo sapiens) (UniProt Q8NEV4); details: Compound concentration 100.0 nM
[38] = biological target: Serine/threonine-protein kinase Nek5 (Homo sapiens) (UniProt Q6P3R8); details: Compound concentration 100.0 nM
[39] = biological target: Casein kinase I isoform gamma-1 (Homo sapiens) (UniProt Q9HCP0); details: Compound concentration 100.0 nM
[40] = biological target: Casein kinase II subunit alpha' (Homo sapiens) (UniProt P19784); details: Compound concentration 100.0 nM
[41] = biological target: Dual specificity protein kinase CLK4 (Homo sapiens) (UniProt Q9HAZ1); details: Compound concentration 100.0 nM
[42] = tested on: Epidermal growth factor receptor (Homo sapiens), P00533 [L861Q]; details: Compound concentration 100.0 nM
[43] = biological target: Cyclin-dependent kinase 5 (Homo sapiens) (UniProt Q00535); details: Compound concentration 100.0 nM
[44] = biological target: Myosin light chain kinase family member 4 (Homo sapiens) (UniProt Q86YV6); details: Compound concentration 100.0 nM
[45] = biological target: Casein kinase I isoform gamma-3 (Homo sapiens) (UniProt Q9Y6M4); details: Compound concentration 100.0 nM
Sequence of Casein kinase I isoform gamma-3 (Homo sapiens) (Q9Y6M4 whole entry, looked up, canonical isoform): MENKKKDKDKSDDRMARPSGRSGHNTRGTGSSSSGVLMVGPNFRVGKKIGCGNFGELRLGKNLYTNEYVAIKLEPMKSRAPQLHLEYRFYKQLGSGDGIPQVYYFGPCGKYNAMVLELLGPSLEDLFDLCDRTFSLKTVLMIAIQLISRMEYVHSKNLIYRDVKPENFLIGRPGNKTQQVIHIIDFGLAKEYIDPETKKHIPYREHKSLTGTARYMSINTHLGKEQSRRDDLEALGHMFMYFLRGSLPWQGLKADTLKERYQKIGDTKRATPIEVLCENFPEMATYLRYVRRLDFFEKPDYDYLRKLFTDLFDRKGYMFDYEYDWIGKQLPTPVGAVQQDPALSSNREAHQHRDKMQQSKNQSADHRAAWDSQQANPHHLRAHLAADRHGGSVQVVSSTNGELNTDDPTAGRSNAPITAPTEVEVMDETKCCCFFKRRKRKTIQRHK

Sequence of Peripheral plasma membrane protein CASK (Homo sapiens) (O14936 whole entry): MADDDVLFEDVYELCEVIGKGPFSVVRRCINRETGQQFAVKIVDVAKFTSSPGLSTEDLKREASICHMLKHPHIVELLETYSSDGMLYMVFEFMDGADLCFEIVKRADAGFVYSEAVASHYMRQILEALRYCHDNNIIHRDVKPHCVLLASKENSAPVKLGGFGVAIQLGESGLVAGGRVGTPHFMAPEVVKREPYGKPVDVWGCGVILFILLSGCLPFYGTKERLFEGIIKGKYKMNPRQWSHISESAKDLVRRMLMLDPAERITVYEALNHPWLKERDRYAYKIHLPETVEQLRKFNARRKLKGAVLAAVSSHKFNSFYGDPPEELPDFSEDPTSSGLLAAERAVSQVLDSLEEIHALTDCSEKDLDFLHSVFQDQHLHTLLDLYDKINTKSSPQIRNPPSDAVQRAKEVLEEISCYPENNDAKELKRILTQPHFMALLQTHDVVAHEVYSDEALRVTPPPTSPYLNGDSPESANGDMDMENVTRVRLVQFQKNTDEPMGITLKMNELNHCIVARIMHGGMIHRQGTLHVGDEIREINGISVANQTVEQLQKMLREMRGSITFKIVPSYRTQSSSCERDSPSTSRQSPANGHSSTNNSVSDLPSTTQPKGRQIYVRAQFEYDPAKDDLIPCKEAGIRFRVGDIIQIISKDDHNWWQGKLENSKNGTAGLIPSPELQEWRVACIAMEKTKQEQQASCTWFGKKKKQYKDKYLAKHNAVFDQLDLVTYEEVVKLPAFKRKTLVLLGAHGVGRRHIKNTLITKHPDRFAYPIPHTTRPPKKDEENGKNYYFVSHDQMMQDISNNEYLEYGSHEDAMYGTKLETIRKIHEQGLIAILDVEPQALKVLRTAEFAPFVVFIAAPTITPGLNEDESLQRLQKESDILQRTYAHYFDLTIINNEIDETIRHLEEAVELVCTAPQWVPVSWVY
Sequence of Casein kinase II subunit alpha' (Homo sapiens) (P19784 whole entry, looked up): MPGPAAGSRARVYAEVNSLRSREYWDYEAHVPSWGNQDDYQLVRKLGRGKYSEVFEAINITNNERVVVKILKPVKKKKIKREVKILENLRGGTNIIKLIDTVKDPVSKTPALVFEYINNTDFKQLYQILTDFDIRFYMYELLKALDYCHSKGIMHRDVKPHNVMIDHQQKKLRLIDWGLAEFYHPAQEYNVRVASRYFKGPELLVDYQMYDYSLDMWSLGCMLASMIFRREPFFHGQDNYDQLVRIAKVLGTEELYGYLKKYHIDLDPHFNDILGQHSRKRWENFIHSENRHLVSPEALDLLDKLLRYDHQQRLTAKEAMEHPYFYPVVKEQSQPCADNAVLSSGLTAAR
Sequence of Calcium/calmodulin-dependent protein kinase type II subunit alpha (Homo sapiens) (Q9UQM7 whole entry): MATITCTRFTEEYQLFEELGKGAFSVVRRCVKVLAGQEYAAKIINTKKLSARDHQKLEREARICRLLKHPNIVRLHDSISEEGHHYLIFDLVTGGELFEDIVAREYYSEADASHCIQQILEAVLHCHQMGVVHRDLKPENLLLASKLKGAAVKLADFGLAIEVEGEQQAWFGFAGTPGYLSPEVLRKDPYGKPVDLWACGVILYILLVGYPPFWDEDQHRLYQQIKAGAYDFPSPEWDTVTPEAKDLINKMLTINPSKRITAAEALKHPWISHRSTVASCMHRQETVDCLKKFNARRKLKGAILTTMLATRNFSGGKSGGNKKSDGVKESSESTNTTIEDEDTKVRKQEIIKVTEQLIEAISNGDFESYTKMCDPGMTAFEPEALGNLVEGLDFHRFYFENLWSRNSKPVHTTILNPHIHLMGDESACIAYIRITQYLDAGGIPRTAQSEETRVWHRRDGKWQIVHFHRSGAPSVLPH
Sequence of Misshapen-like kinase 1 (Homo sapiens) (Q8N4C8 whole entry, looked up): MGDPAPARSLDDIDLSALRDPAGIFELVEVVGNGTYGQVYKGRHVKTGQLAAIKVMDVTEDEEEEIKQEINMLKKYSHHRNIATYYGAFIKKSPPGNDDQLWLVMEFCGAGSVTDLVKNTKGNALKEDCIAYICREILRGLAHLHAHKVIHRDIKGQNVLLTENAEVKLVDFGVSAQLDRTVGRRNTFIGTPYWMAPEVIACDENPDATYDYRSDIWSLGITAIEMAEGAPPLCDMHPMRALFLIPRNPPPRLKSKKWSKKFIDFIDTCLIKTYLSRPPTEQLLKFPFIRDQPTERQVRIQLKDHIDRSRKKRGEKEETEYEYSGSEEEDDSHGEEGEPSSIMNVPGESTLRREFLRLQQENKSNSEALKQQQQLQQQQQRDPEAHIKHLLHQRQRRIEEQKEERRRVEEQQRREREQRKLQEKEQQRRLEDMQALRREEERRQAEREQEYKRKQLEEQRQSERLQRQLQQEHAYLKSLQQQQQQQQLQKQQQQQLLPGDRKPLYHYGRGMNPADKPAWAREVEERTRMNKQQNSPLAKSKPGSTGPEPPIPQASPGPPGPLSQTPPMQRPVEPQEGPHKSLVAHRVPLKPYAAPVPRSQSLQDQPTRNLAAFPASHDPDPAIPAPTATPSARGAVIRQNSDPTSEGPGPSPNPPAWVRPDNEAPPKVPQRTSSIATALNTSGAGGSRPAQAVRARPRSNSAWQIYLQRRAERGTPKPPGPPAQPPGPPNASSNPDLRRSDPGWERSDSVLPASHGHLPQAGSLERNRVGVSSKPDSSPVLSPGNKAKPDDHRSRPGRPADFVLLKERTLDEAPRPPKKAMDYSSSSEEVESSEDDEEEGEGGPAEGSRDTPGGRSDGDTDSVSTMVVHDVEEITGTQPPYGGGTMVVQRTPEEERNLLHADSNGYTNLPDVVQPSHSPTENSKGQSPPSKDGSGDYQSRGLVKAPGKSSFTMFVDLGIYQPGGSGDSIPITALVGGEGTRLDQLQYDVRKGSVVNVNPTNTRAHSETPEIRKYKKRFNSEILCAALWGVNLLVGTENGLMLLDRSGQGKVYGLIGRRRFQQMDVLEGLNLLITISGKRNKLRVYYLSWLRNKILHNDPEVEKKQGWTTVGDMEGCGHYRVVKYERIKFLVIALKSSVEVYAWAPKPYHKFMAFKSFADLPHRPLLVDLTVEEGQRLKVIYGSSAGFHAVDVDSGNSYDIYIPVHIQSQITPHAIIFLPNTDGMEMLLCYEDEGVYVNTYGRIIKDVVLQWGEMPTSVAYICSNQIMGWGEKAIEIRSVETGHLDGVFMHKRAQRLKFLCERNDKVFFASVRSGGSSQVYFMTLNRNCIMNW
Sequence of Mitogen-activated protein kinase kinase kinase kinase 1 (Homo sapiens) (Q92918 whole entry, looked up): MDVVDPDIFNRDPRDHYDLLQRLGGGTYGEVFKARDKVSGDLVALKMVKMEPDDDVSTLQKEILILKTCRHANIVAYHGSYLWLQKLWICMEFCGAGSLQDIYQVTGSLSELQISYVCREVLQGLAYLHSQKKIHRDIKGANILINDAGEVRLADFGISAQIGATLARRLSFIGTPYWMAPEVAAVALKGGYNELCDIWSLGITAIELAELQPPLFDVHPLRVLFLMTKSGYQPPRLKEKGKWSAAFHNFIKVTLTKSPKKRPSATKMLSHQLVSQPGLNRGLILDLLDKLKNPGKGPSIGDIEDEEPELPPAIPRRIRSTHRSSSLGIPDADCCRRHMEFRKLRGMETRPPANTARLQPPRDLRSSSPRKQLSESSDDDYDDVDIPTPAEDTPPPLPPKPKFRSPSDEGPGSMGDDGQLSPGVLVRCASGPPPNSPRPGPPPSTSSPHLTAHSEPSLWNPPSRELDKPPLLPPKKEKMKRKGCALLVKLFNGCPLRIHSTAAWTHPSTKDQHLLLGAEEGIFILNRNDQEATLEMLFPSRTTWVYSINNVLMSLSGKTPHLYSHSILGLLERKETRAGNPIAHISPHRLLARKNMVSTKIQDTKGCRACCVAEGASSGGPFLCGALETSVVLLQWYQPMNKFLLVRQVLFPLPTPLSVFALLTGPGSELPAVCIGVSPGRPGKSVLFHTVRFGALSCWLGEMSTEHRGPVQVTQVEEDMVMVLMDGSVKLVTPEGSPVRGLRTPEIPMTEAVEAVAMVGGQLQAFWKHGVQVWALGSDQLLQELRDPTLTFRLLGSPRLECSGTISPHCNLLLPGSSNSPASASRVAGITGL
Sequence of Dual specificity protein kinase CLK4 (Homo sapiens) (Q9HAZ1 whole entry, looked up): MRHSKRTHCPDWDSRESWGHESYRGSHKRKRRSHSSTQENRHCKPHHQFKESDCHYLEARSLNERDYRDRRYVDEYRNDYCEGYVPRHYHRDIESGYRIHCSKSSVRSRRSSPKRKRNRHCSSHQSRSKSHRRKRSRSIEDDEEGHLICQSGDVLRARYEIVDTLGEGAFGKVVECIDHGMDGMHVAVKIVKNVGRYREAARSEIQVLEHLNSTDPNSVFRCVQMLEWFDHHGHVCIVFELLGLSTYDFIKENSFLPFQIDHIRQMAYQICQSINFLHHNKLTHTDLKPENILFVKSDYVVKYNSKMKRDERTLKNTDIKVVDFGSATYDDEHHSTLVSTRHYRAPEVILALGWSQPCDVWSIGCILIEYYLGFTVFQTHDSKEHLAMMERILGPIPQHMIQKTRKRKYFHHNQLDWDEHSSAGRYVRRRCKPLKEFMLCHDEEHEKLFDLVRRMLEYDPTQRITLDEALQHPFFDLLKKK

Nc1c(C(=O)NCc2ccc(C(=O)NCCCC3CCCCC3)cc2)cnn1-c1ccccc1 [SR-318]
inactive: residual activity [1] 90% | residual activity [2] 91% | residual activity [3] 100% | inhibition [4] 13.2% | residual activity [5] 79% | residual activity [6] 100% | residual activity [7] 100% | residual activity [8] 78% | residual activity [9] 100% | residual activity [10] 90% | residual activity [11] 90% | residual activity [12] 100% | residual activity [13] 61% | residual activity [14] 100% | residual activity [15] 100% | residual activity [16] 100% | residual activity [17] 100% | residual activity [18] 77% | residual activity [19] 100% | inhibition [20] 25.3% | residual activity [21] 100% | residual activity [22] 100% | residual activity [23] 94% | residual activity [24] 100% | residual activity [25] 100% | residual activity [26] 81% | residual activity [27] 91% | residual activity [28] 100% | residual activity [29] 99% | residual activity [30] 100% | residual activity [31] 98% | residual activity [32] 100% | residual activity [33] 100% | residual activity [34] 100% | residual activity [35] 96% | residual activity [36] 100% | residual activity [37] 100% | residual activity [38] 99% | residual activity [39] 100% | residual activity [40] 100% | residual activity [41] 96% | residual activity [42] 90% | residual activity [43] 100% | residual activity [44] 100% | residual activity [45] 100%

O=C(NCCCC1CCCCC1)c1ccc(CNC(=O)c2cnn(-c3ccccc3)c2C(F)(F)F)cc1 [SR-321]
inactive: residual activity [1] 95% | residual activity [2] 88% | residual activity [3] 100% | inhibition [4] 25.8% | residual activity [5] 100% | residual activity [6] 100% | residual activity [7] 100% | residual activity [8] 100% | residual activity [9] 100% | residual activity [10] 96% | residual activity [11] 87% | residual activity [12] 100% | residual activity [13] 92% | residual activity [14] 100% | residual activity [15] 76% | residual activity [16] 97% | residual activity [17] 100% | residual activity [18] 100% | residual activity [19] 100% | inhibition [20] 21.9% | residual activity [21] 99% | residual activity [22] 73% | residual activity [23] 93% | residual activity [24] 100% | residual activity [25] 100% | residual activity [26] 93% | residual activity [27] 68% | residual activity [28] 97% | residual activity [29] 100% | residual activity [30] 100% | residual activity [31] 100% | residual activity [32] 100% | residual activity [33] 100% | residual activity [34] 89% | residual activity [35] 93% | residual activity [36] 100% | residual activity [37] 98% | residual activity [38] 100% | residual activity [39] 100% | residual activity [40] 88% | residual activity [41] 100% | residual activity [42] 100% | residual activity [43] 88% | residual activity [44] 100% | residual activity [45] 100%
